Laboratory results: ChEMBL document CHEMBL5325405, “Rationally designed donepezil-based hydroxamates modulate Sig-1R and HDAC isoforms to exert anti-glioblastoma effects” (Eur J Med Chem, 2023)
Calls of active or inactive are those of the source. The rule behind the calls is not given here.

Experiments:
U-87 MG [1] = test: Cytotoxicity against human U-87 MG cells assessed as reduction in cell growth at 30 uM measured after 3 days by MTT assay; assay type: functional, U-87MG ATCC; parameters: scale not given: the % may be the effect or the level left; conditions: time 3 day
GBM [2] = test: Inhibition of colony formation in Temozolomide-resistant patient derived pt 5 GBM cells at 3 to 30 uM measured after 3 days by crystal violet staining based analysis; assay type: functional, cell-based; conditions: Homo sapiens, dose 3-30 µM, time 3.0 day
GBM [3] = test: Inhibition of colony formation in Temozolomide-resistant patient derived pt 3 GBM cells at 3 to 30 uM measured after 3 days by crystal violet staining based analysis; assay type: functional, cell-based; conditions: Homo sapiens, dose 3-30 µM, time 3.0 day
Glioblastoma stem cell [4] = test: Antiproliferative activity against Temozolomide-resistant patient derived pt 3 Glioblastoma stem cell sphere assessed as reduction in cell viability at 30 uM measure after 3 days by MTT assay; assay type: functional, cell-based; conditions: Homo sapiens, time 3.0 day
Glioblastoma stem cell [5] = test: Antiproliferative activity against Temozolomide-resistant patient derived pt 5 Glioblastoma stem cell sphere assessed as reduction in cell viability at 30 uM measure after 3 days by MTT assay; assay type: functional, cell-based; conditions: Homo sapiens, time 3.0 day
U-87 MG [6] = test: cells; assay type: functional, cell-based, U-87MG ATCC; conditions: Homo sapiens
A 172 [7] = test: Upregulation of acetylated Sig-1R expression in human A-172 cells by immunoblotting analysis; assay type: functional, cell-based
GBM [8] = test: Antitumor activity against Temozolomide-resistant patient derived GBM cells assessed as reduction in cell growth measured after 3 uM measured after 3 days by MTT assay; assay type: functional, cell-based; conditions: Homo sapiens, time 3.0 day
Glioblastoma stem cell [9] = test: Antiproliferative activity against Temozolomide-resistant patient derived pt 3 Glioblastoma stem cell sphere assessed as reduction in cell viability at 10 uM measure after 3 days by MTT assay; assay type: functional, cell-based; conditions: Homo sapiens, time 3.0 day
A 172 [10] = test: Induction of cell cycle arrest in human A-172 cells assessed as increase in accumulation of cells at G2/M phase at 10 uM measured after 24 hrs by propidium iodide staining based flow cytometry analysis; assay type: functional
Astrocyte = test: Cytotoxicity against primary astrocyte cells (unknown origin) assessed as reduction in cell growth at 3 uM measured after 3 days by MTT assay; assay type: toxicity, cell-based; conditions: 72 h, time 3 day
U-87 MG [11] = test: Cytotoxicity against human U-87 MG cells assessed as reduction in cell growth at 10 uM measured after 3 days by MTT assay; assay type: functional, U-87MG ATCC; parameters: scale not given: the % may be the effect or the level left; conditions: time 3 day
A 172 [12] = test: Induction of cell cycle arrest in human A-172 cells assessed as decrease in accumulation of cells at G0/G1 phase at 10 uM measured after 24 hrs by propidium iodide staining based flow cytometry analysis; assay type: functional
GBM [13] = test: Inhibition of colony formation in Temozolomide-resistant patient derived pt 3 GBM cells at 10 uM measured after 3 days by crystal violet staining based analysis; assay type: functional, cell-based; conditions: Homo sapiens, time 3.0 day
Glioblastoma stem cell [14] = test: Antiproliferative activity against Temozolomide-resistant patient derived pt 5 Glioblastoma stem cell sphere assessed as reduction in cell viability at 10 uM measure after 3 days by MTT assay; assay type: functional, cell-based; conditions: Homo sapiens, time 3.0 day
A 172 [15] = test: Downregulation of Spl expression in human A-172 cells at 1 to 10 uM measured after 16 hrs by Western blotting analysis; assay type: functional, cell-based; conditions: dose 1-10 µM
A 172 [16] = test: Upregulation of acetylated tubulin expression in human A-172 cells at 1 to 10 uM measured after 8 to 24 hrs by Western blotting analysis; assay type: functional, cell-based; conditions: dose 1-10 µM, time 8-24 hrs
Histone deacetylase 1 = Histone deacetylase 1 (Homo sapiens, UniProt Q13547); test: Inhibition of human HDAC1
A 172 [17] = test: Upregulation of acetylated H3 k9/k14 expression in human A-172 cells at 1 to 10 uM measured after 8 to 24 hrs by Western blotting analysis; assay type: functional, cell-based; conditions: dose 1-10 µM, time 8-24 hrs
A 172 [18] = test: […] caspase-3 expression in human A-172 cells at 1 to 10 uM measured after 16 hrs by Western blotting analysis; assay type: functional, cell-based; conditions: dose 1-10 µM
A 172 [19] = test: Induction of cell cycle arrest in human A-172 cells assessed as accumulation of cells at subG1 phase at 10 uM measured after 48 hrs by propidium iodide staining based flow cytometry analysis; assay type: functional
U-87 MG [20] = test: Antitumor activity against Temozolomide-resistant human U-87 MG cells xenografted in orthotopic BALB/c mouse assessed as prolongation of animal survival at 10 mg/kg, ip qod; assay type: functional, organism-based; conditions: U-87MG ATCC
GBM [21] = test: Inhibition of colony formation in Temozolomide-resistant patient derived pt 5 GBM cells at 10 uM measured after 3 days by crystal violet staining based analysis; assay type: functional, cell-based; conditions: Homo sapiens, time 3.0 day
A 172 [22] = test: Downregulation of PCNA expression in human A-172 cells at 1 to 10 uM measured after 16 hrs by Western blotting analysis; assay type: functional, cell-based; conditions: dose 1-10 µM
A 172 [23] = test: Induction of cell cycle arrest in human A-172 cells assessed as decrease in accumulation of cells at S phase at 10 uM measured after 24 hrs by propidium iodide staining based flow cytometry analysis; assay type: functional
Histone deacetylase 2 = Histone deacetylase 2 (Homo sapiens, UniProt Q92769); test: Inhibition of human HDAC2
Histone deacetylase 8 = target: T1, Histone deacetylase 8 (Homo sapiens, UniProt Q9BY41); test: Inhibition of human HDAC8
T1 sequence (Q9BY41 whole entry): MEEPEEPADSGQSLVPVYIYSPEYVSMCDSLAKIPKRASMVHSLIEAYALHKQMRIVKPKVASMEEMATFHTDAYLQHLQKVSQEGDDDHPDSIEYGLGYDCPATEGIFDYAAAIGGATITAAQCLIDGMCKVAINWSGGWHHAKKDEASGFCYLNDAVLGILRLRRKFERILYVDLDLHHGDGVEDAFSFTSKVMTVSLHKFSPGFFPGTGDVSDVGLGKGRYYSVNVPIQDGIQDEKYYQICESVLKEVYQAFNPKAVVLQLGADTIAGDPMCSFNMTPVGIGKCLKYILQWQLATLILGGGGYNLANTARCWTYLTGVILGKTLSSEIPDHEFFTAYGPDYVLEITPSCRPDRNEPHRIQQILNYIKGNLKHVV

[24] = target: T2, Protein deacetylase HDAC6 (Homo sapiens, UniProt Q9UBN7); test: Inhibition of human HDAC6
T2 sequence (Q9UBN7 whole entry): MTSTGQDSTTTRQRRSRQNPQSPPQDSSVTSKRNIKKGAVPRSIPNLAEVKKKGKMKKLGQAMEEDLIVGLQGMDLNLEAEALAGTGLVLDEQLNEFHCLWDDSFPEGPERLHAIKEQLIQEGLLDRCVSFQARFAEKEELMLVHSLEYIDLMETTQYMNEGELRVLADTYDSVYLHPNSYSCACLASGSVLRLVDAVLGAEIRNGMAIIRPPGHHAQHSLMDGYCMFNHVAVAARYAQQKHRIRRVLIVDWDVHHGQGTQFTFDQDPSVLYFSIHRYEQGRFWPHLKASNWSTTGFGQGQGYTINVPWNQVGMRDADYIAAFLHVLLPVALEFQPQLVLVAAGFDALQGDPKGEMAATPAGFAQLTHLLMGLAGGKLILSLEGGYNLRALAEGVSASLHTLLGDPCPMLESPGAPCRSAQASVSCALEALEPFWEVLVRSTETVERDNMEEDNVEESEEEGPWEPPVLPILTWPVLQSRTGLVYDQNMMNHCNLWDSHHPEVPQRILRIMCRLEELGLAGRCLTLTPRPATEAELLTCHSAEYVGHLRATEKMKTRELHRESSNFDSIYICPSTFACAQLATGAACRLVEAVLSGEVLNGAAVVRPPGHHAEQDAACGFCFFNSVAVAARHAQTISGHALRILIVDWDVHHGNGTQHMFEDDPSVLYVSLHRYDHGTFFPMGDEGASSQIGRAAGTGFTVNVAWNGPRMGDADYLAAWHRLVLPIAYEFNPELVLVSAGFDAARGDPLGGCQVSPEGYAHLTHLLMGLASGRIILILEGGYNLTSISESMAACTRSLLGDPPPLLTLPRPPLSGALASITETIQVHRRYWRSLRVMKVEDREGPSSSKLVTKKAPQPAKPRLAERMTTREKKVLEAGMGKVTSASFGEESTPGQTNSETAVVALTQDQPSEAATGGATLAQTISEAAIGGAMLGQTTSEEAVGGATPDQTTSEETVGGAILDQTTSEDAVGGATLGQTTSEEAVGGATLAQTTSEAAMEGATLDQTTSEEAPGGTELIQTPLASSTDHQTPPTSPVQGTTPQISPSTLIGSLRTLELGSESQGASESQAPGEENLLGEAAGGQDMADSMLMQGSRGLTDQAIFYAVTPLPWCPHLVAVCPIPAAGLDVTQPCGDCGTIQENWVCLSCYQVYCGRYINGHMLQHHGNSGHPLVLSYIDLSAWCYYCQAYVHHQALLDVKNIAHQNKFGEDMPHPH

Histone deacetylase 1, sequence (Q13547 whole entry): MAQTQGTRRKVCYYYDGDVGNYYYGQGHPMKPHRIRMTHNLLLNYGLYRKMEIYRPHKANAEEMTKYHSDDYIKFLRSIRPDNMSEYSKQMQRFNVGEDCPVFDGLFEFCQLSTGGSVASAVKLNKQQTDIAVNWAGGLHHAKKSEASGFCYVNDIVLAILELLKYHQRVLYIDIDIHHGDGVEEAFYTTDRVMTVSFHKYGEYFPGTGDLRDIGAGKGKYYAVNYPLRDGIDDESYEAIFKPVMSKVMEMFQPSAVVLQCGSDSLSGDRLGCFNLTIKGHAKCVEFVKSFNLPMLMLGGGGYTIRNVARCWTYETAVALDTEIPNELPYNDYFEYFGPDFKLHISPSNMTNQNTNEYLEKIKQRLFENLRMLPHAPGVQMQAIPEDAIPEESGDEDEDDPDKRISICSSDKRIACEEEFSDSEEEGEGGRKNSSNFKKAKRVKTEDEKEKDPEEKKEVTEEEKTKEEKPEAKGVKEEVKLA
Histone deacetylase 2, sequence (Q92769 whole entry): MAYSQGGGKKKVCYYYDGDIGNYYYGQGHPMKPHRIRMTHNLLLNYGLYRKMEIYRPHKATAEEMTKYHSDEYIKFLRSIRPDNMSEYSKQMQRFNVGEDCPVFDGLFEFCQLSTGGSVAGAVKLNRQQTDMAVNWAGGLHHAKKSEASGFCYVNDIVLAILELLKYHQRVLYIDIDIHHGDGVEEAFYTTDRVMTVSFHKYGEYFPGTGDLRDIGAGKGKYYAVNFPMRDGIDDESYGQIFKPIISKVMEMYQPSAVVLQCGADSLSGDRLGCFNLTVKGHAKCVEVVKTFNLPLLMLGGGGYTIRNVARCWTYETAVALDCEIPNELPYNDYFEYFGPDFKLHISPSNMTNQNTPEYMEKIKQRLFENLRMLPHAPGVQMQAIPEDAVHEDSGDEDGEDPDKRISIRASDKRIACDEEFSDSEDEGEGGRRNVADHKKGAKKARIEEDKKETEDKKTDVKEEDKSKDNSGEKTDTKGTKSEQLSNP

Compound | IC50 (U-87 MG [6]) [nM] | Activity (GBM [8]) | Activity (Astrocyte) | Activity (U-87 MG [11]) [%] | IC50 (Histone deacetylase 1) [nM] | IC50 (Histone deacetylase 2) [nM] | IC50 (Histone deacetylase 8) [nM] | IC50 [24] [nM] | other results
COc1cc2c(cc1OC)C(=O)C(CC1CCN(Cc3ccccc3)CC1)C2 (stereo not given) [DONEPEZIL] | 47200 | inactive | – | – | – | – | – | – | Activity (U-87 MG [1]): 50%; inhibition (GBM [2]): inactive; inhibition (GBM [3]): inactive; Activity (Glioblastoma stem cell [4]): Active; Activity (Glioblastoma stem cell [5]): Active; Activity (A 172 [7]): inactive
COc1cc2c(cc1OC)C(=O)C(CC1CCN(Cc3ccc(NC(=O)CCCCCCC(=O)NO)cc3)CC1)C2 (stereo not given) | 5780 | Active | Non-Toxic | 90 | 313 | 710 | 842 | 2.7 | Activity (Glioblastoma stem cell [9]): Active; Activity (A 172 [10]): Active; Activity (A 172 [12]): Active; inhibition (GBM [13]): Active; Activity (Glioblastoma stem cell [14]): Active; Activity (A 172 [15]): Active; Activity (A 172 [16]): Active; Activity (Glioblastoma stem cell [4]): Active; Activity (A 172 [17]): Active; Activity (A 172 [18]): Active; Activity (A 172 [19]): Active; Activity (U-87 MG [20]): Active; Activity (Glioblastoma stem cell [5]): Active; inhibition (GBM [21]): Active; Activity (A 172 [22]): Active; Activity (A 172 [23]): Active; Activity (A 172 [7]): Active
COc1cc2c(cc1OC)C(=O)C(CC1CCN(S(=O)(=O)c3ccc(/C=C/C(=O)NO)cc3)CC1)C2 (stereo not given) | 17000 | – | – | – | – | – | – | – | –
COc1cc2c(cc1OC)C(=O)C(CC1CCN(C(=O)CCCCCC(=O)NO)CC1)C2 (stereo not given) | 43200 | – | – | – | – | – | – | – | –
COc1cc2c(cc1OC)C(=O)C(CC1CCN(Cc3cccc(NC(=O)CCCCCCC(=O)NO)c3)CC1)C2 (stereo not given) | 4910 | Active | Non-Toxic | 90 | 611 | 1410 | 1240 | 51.5 | Activity (A 172 [10]): Active; Activity (A 172 [12]): Active; Activity (A 172 [19]): Active; Activity (A 172 [23]): Active
COc1cc2c(cc1OC)C(=O)C(CC1CCN(C(=O)CCCCCCC(=O)NO)CC1)C2 (stereo not given) | 8010 | – | – | – | – | – | – | – | –
COc1cc2c(cc1OC)C(=O)C(CC1CCN(Cc3ccc(/C=C/C(=O)NO)cc3)CC1)C2 (stereo not given) | 1760 | Active | Toxic | 90 | 2430 | 500 | 113 | 239 | –
COc1cc2c(cc1OC)C(=O)C(CC1CCN(Cc3ccc(NCc4ccc(C(=O)NO)cc4)cc3)CC1)C2 (stereo not given) | 6170 | Active | Non-Toxic | 90 | – | – | 2150 | 49.6 | inhibition (Histone deacetylase 1): inactive; inhibition (Histone deacetylase 2): inactive
COc1cc2c(cc1OC)C(=O)C(CC1CCN(S(=O)(=O)c3cccc(/C=C/C(=O)NO)c3)CC1)C2 (stereo not given) | 6380 | – | – | – | 1670 | 3360 | 1720 | 110 | –
O=C(CCCCCCC(=O)Nc1ccccc1)NO [VORINOSTAT] | – | Active | Toxic | – | – | – | – | – | Activity (A 172 [7]): inactive
COc1cc2c(cc1OC)C(=O)C(CC1CCN(Cc3ccc(C(=O)NO)cc3)CC1)C2 (stereo not given) | 46000 | – | – | – | – | – | – | – | –
COc1cc2c(cc1OC)C(=O)C(CC1CCN(C(=O)CCCCCCCC(=O)NO)CC1)C2 (stereo not given) | 42800 | – | – | – | – | – | – | – | –
COc1cc2c(cc1OC)C(=O)C(CC1CCN(C(=O)CCCCCCCCC(=O)NO)CC1)C2 (stereo not given) | 29100 | – | – | – | – | – | – | – | –
